Data set [1] is described as follows: Kinetic solubility (iSol Explorer method). It is filed as physicochemical. The following applies: system solution buffer (pION), aqueous buffer, kinetic from dmso stock. Here is the method: Kinetic solubility was determined using the iSol Explorer method (pION Inc.; Woburn, Mass.). Certain Example Compounds were dissolved in dimethylsulfoxide (DMSO; >99.9% ACS spectrophotometric grade; Sigma-Aldrich, St. Louis, Mo.) to a concentration of 100 mM. The DMSO stock was diluted 1:100 in system solution buffer (pION Inc. Wobum Mass.) that had been adjusted to the desired pH (5.0, 6.8, and 7.4) with either HCl or NaOH. The diluted samples in the desired buffer were incubated for 15 minutes at room temperature and filtered using 96-well plate with 0.25 mm glass fiber/1.2 μm polyethersulfone filter bottoms (Corning, Inc.; Corning, N.Y.). The filtrate is transferred to a second 96-well plate and read on a SpectraMAX 190 (Molecular Devices; Sunnyvale, Calif.) scanning from 190 to 498 nm. The data are analyzed with Sol Explorer Command version 2.2, (pION Inc. Woburn, Mass.) and the concentration reported in molarity and/or mass per volume.

The nature of data set [2]: Stability assessment / semi-quantitative hygroscopicity in a relative humidity (RH) chamber. It is filed as physicochemical. The following applies: solid in RH chamber; morphology and parent:prodrug composition. Here is the method:
“ND” in Table 2 refers to “No Data”. Purity was determined by HPLC. Melting point was determined by differential scanning calorimetry (“DSC”), and semi-quantitative hygroscopicity was determined in a relative humidity (“RH”) chamber.

Data set [3] in a line: Stability in mouse liver microsomal preparations. The following applies: liver microsomes, with and without 1 mM NADPH (not said which), read-out: Mouse Liver Microsomes t1/2. Type of data set: in vitro ADME. Here is the method: Relative stability of Example Compound Nos. 1 through 60 in mouse plasma and mouse liver microsomal preparations.
Certain Example Compounds were each added to a final concentration of 1 μM to 1 mL of each of mouse plasma and mouse liver microsomal preparations (with and without 1 mM NADPH). Stability assays were run in duplicate and were sampled at 0, 5, 15, 30, 60 and 120 minutes as follows: one hundred microliter aliquots of samples were removed at the specified sampling times, and the reaction was quenched with 400 μL of acetonitrile.
Samples were analyzed by HPLC-ESI-MS/MS by measuring the peak area of both the starting Example Compound and parent compound (i.e., either Parent Compound A or Parent Compound B) that were created by removal of the Prodrug Moiety (as defined in Section 6 herein).

Data set [4] can be described thus: Experiment 2: femoral vein samples of rats after IV Parent Compound A. Particulars: for [Par. Cmp. A]: listed as Par. Cmp. A. Type of data set: in vivo, female Sprague Dawley rats. Here is the method: Experiment 2. Three female Sprague Dawley rats (215-250 g, Charles River Laboratories) with a catheter implanted surgically in the femoral vein for blood sampling were used in this study. Parent Compound A, solubilized in 3% DMA, 40% PEG300, 12% ethanol, and 45% water by volume, was administered IV at a dose of 2.5 mg/kg in a volume of 2 mL/kg. Femoral blood samples were collected from each animal at 0.083, 0.25, 0.5, 1, 2, 4, and 8 hours following administration of compound and processed for analysis of Parent Compound A concentration.
Pharmacokinetic parameters estimated for Parent Compound A included the maximum observed drug concentration (Cmax), time of maximum observed drug concentration (Tmax), apparent terminal half-life (t1/2), area under the concentration-time curve from time zero to 8 hours postdose (AUC(0-8)), and area under the concentration-time curve extrapolated to infinity (AUC(0-inf)). The bioavailability (% F) of Parent Compound A in portal vein samples relative to IV administration was also estimated.
Plasma samples were analyzed for Example Compound 35 or Parent Compound A concentration using a LC-MS/MS method. All sample runs met standard acceptance criteria for discovery purposes, and were based on a standard curve containing at least 7 points. At least half of quality control samples at each of the three concentrations tested, and two thirds of the entire quality control sample pool, were within 15% of their theoretical value. The r^2 value for each standard curve was ≧0.99. The quantitation range for the Example Compound 35 and Parent Compound A assays was 1 to 100 ng/mL and 5 to 2,500 ng/mL, respectively, using a 0.05 mL sample volume.
The data were entered into the PK software package WinNonlin® version 5.1.1. A complete data check was conducted to verify the accuracy of data entry.
Pharmacokinetic parameters were estimated on median plasma concentrations using extravascular input (PO). Nominal collection times after administration of compound were used for PK analyses. The use of a non-compartmental model provided an adequate fit of the data. Pharmacokinetic parameters estimated for Parent Compound A included the maximum observed drug concentration (Cmax), time of maximum observed drug concentration (Tmax), apparent terminal half-life (t1/2), apparent volume of distribution (Vz obs), apparent clearance (C1 obs), area under the concentration-time curve from time zero to 8 hours postdose of Example Compound 35 […], and area under the concentration-time curve extrapolated to infinity (AUC(0-inf)). Example Compound 35 was detected in only one 0.25 hour hepatic portal vein sample at 1.29 ng/mL. Any Example Compound 35 present in all of the other samples was below the quantitation limit of 1 ng/mL and pharmacokinetic parameters were not determined for those samples. The median PK parameters estimated for Parent Compound A following portal vein sampling of the oral dose of Example Compound 35 or following femoral vein sampling of the intravenous dose of Parent Compound A are given in the Table 5 below. Individual and median concentration of Parent Compound A and Example Compound 35 in hepatic portal vein following oral administration of Example Compound 35 (20 mg/kg) to rats pursuant to Experiment 1 are shown in Table 6 below. Individual and median plasma concentration of Parent Compound A in femoral vein following IV administration of Parent Compound A (2.5 mg/kg) to rats pursuant to Experiment 2 are shown in Table 7 below. FIG. 5 depicts median concentration of Parent Compound A and Example Compound 35 in hepatic portal vein of rats following a single oral dose of Example Compound 35 (20 mg/kg). FIG. 6 depicts median plasma concentration of Parent Compound A following a single IV dose of Parent Compound A (2.5 mg/kg) to rats. […]

Where [5] appears, read: female, Sprague-Dawley, rat, plasma (femoral vein), Parent Cmpd. A 2.5 mg/kg IV, Femoral Vein, median.

Structures are written as SMILES. Where “and” joins values, the source holds several entries; their conditions need not be identical. Equal entries are not always repeated. Where two headings read alike, the source gives them in different places. Some results are limits rather than exact numbers.

Regarding `O=C(NCc1ccc[n+](COC(=O)c2ccccc2)c1)Nc1ccc(OCCc2ccccc2-c2ccccc2)cc1` [Example 35, 1-[(Benzoyloxy)methyl]-3-{[({4-[2-(biphenyl-2-yl)ethoxy]phenyl}carbamoyl)amino]methyl} pyridinium], the solubility at 15 min in data set [1] (pH 5.0, 15 minutes at room temperature) is 402 µM; in data set [1] (pH 6.8, 15 minutes at room temperature), 404 µM; in data set [1] (pH 7.4, 15 minutes at room temperature), 433 µM. Also, the “Stability at 40° C. and 75% RH” value in data set [2] was “No change in morphology stopped at 13 days, only prodrug observed”. Moreover, the “Stability at 60° C. and 75% RH” value in data set [2] is “Deliquesced at 7 days, approx 30:70 parent to prodrug observed”. In addition, the half-life at 1 µM in data set [3] is < 5 min.

As for `O=C(NCc1cccnc1)Nc1ccc(OCCc2ccccc2-c2ccccc2)cc1` [Parent Compound A, 1-{4-[2-(Biphenyl-2-yl)ethoxy]phenyl}-3-(pyridin-3-ylmethyl)urea], the concentration at 0.083 h in data set [4] (female, Sprague-Dawley, rat, plasma (femoral vein), iv, 2.5 mg/kg, femoral vein plasma, 0.083 hr after IV Parent Compound A 2.5 mg/kg, read-out: Median [Par. Cmp. A]) worked out at 1920 ng/mL. The concentration at 0.25 h in data set [4] (female, Sprague-Dawley, rat, plasma (femoral vein), iv, 2.5 mg/kg, femoral vein plasma, 0.25 hr after IV Parent Compound A 2.5 mg/kg, individual rats, read-out: [Par. Cmp. A]) was 1610 ng/mL; in data set [4] (female, Sprague-Dawley, rat, plasma (femoral vein), iv, 2.5 mg/kg, femoral vein plasma, 0.25 hr after IV Parent Compound A 2.5 mg/kg, read-out: Median [Par. Cmp. A]) it was 1130 ng/mL. In addition, the concentration at 0.5 h in data set [4] (female, Sprague-Dawley, rat, plasma (femoral vein), iv, 2.5 mg/kg, femoral vein plasma, 0.5 hr after IV Parent Compound A 2.5 mg/kg, individual rats, read-out: [Par. Cmp. A]) is 568 ng/mL; in data set [4] (female, Sprague-Dawley, rat, plasma (femoral vein), iv, 2.5 mg/kg, femoral vein plasma, 0.5 hr after IV Parent Compound A 2.5 mg/kg, read-out: Median [Par. Cmp. A]), 720 ng/mL. For the same compound, the concentration at 1 h in data set [4] (female, Sprague-Dawley, rat, plasma (femoral vein), iv, 2.5 mg/kg, femoral vein plasma, 1 hr after IV Parent Compound A 2.5 mg/kg, individual rats, read-out: [Par. Cmp. A]) was found to be 343 ng/mL; in data set [4] (female, Sprague-Dawley, rat, plasma (femoral vein), iv, 2.5 mg/kg, femoral vein plasma, 1 hr after IV Parent Compound A 2.5 mg/kg, read-out: Median [Par. Cmp. A]) it was 360 ng/mL. For the same compound, the concentration at 2 h turned out to be 136 ng/mL in data set [4] (female, Sprague-Dawley, rat, plasma (femoral vein), iv, 2.5 mg/kg, femoral vein plasma, 2 hr after IV Parent Compound A 2.5 mg/kg, individual rats, read-out: [Par. Cmp. A]) and 177 ng/mL in data set [4] (female, Sprague-Dawley, rat, plasma (femoral vein), iv, 2.5 mg/kg, femoral vein plasma, 2 hr after IV Parent Compound A 2.5 mg/kg, read-out: Median [Par. Cmp. A]). Moreover, the concentration at 4 h in data set [4] (female, Sprague-Dawley, rat, plasma (femoral vein), iv, 2.5 mg/kg, femoral vein plasma, 4 hr after IV Parent Compound A 2.5 mg/kg, read-out: Median [Par. Cmp. A]) amounted to 26.2 ng/mL. Also, the concentration at 8 h was determined as 1.98 ng/mL in data set [4] (female, Sprague-Dawley, rat, plasma (femoral vein), iv, 2.5 mg/kg, femoral vein plasma, 8 hr after IV Parent Compound A 2.5 mg/kg, individual rats, * = below the quantitation limit of 5 ng/mL, read-out: [Par. Cmp. A]) and 2.1 ng/mL in data set [4] (female, Sprague-Dawley, rat, plasma (femoral vein), iv, 2.5 mg/kg, femoral vein plasma, 8 hr after IV Parent Compound A 2.5 mg/kg, read-out: Median [Par. Cmp. A]). For the same compound, the AUC(0-inf) in data set [4] (setting [5]) was 1460 ng·h/mL. The Cmax in data set [4] (setting [5]) turned out to be 1920 ng/mL. Further, the Tmax in data set [4] (setting [5]) is 4.2 min. Moreover, the half-life in data set [4] (setting [5]) is 60 min. The AUC(0-t) in data set [4] (female, Sprague-Dawley, rat, plasma (femoral vein), Parent Cmpd. A 2.5 mg/kg IV, Femoral Vein, median, read-out: AUC(0-8)) worked out at 1460 ng·h/mL. The “[Par. Cmp. A]” value in data set [4] (femoral vein plasma, 0.083 hr after IV Parent Compound A 2.5 mg/kg, individual rats, 2.5 mg/kg) is 1,303.7 ng/mL and 2,660.1 ng/mL and 1,924.0 ng/mL; in data set [4] (femoral vein plasma, 0.25 hr after IV Parent Compound A 2.5 mg/kg, individual rats, 2.5 mg/kg), 1,131.8 ng/mL and 878.3 ng/mL; in data set [4] (femoral vein plasma, 0.5 hr after IV Parent Compound A 2.5 mg/kg, individual rats, 2.5 mg/kg) it was 1,062.6 ng/mL and 719.5 ng/mL; in data set [4] (femoral vein plasma, 1 hr after IV Parent Compound A 2.5 mg/kg, individual rats, 2.5 mg/kg), 565.0 ng/mL and 360.4 ng/mL; in data set [4] (femoral vein plasma, 2 hr after IV Parent Compound A 2.5 mg/kg, individual rats, 2.5 mg/kg), 268.6 ng/mL and 177.2 ng/mL; in data set [4] (femoral vein plasma, 4 hr after IV Parent Compound A 2.5 mg/kg, individual rats, 2.5 mg/kg), 19.7 ng/mL and 39.7 ng/mL and 26.2 ng/mL. Also, the “[Par. Cmp. A]” value in data set [4] (femoral vein plasma, 8 hr after IV Parent Compound A 2.5 mg/kg, individual rats, * = below the quantitation limit of 5 ng/mL, 2.5 mg/kg) was 2.05* ng/mL and 2.81* ng/mL.

Broadly, the solubility is how much of the substance goes into solution per volume. High values mean a readily soluble substance, low ones a poorly soluble substance. What is called AUC(0-inf) is total exposure, with the tail of the curve extrapolated. A word on the Cmax: it is the maximum level reached in the sampled fluid or tissue. Usually Tmax stands for the time from dosing to the highest level.

The values are drawn from patent US20150344426A1, “COMPOUNDS AND THERAPEUTIC USES THEREOF” (ALZHEIMER'S INSTITUTE OF AMERICA, INC., priority 2012, published 2015).
